{
  "source": "patent US20220062240A1",
  "about": "“METHODS OF TREATING CANCER USING A CLK INHIBITOR” (BioSplice Therapeutics, Inc., priority 2018, published 2022)",
  "key": {"[1]": {"tested_on": "BT-549", "assay": "CellTiter-Glo Viability Assay, breast cancer", "format": "cell-based", "conditions": "Homo sapiens, BT-549, 96 h"}, "[2]": {"tested_on": "CAMA1", "assay": "CellTiter-Glo Viability Assay, breast cancer", "format": "cell-based", "conditions": "Homo sapiens, CAMA-1, 96 h"}, "[3]": {"tested_on": "DU4475", "assay": "CellTiter-Glo Viability Assay, breast cancer", "format": "cell-based", "conditions": "Homo sapiens, DU-4475, 96 h"}, "[4]": {"tested_on": "HCC1599", "assay": "CellTiter-Glo Viability Assay, breast cancer", "format": "cell-based", "conditions": "Homo sapiens, HCC1599, 96 h"}, "[5]": {"tested_on": "MCF7", "assay": "CellTiter-Glo Viability Assay, breast cancer", "format": "cell-based", "conditions": "Homo sapiens, MCF7, 96 h"}, "[6]": {"tested_on": "MDA-MB-231-Luc", "assay": "CellTiter-Glo Viability Assay, breast cancer", "format": "cell-based", "conditions": "Homo sapiens, 96 h"}, "[7]": {"tested_on": "T47D", "assay": "CellTiter-Glo Viability Assay, breast cancer", "format": "cell-based", "conditions": "Homo sapiens, 96 h"}, "[8]": {"tested_on": "ZR-75-1", "assay": "CellTiter-Glo Viability Assay, breast cancer", "format": "cell-based", "conditions": "Homo sapiens, ZR-75-1, 96 h"}, "[9]": {"tested_on": "all 50 cell lines", "assay": "CellTiter-Glo Viability Assay, average across all cell lines", "format": "cell-based", "conditions": "Homo sapiens, read-out: average EC50 for inhibition of cancer cell proliferation", "how_it_was_run": "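Luminescent ATP read-out (CellTiter-Glo) after a 4-day compound exposure at 37° C served as the viability measure. Cells were seeded at 300-3,000/well, compound wells run in duplicate against DMSO controls, and EC50 values came from fitted dose-response curves.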"}, "[10]": {"tested_on": "colorectal cancer (6 cell lines)", "assay": "CellTiter-Glo Viability Assay, colorectal cancer", "format": "cell-based", "conditions": "Homo sapiens"}, "[11]": {"tested_on": "haematopoietic & lymphoid tumors (13 cell lines)", "assay": "CellTiter-Glo Viability Assay, haematopoietic & lymphoid tumors", "format": "cell-based", "conditions": "Homo sapiens"}, "[12]": {"tested_on": "liver cancer (3 cell lines)", "assay": "CellTiter-Glo Viability Assay, liver cancer", "format": "cell-based", "conditions": "Homo sapiens"}, "[13]": {"tested_on": "lung cancer (4 cell lines)", "assay": "CellTiter-Glo Viability Assay, lung cancer", "format": "cell-based", "conditions": "Homo sapiens"}, "[14]": {"tested_on": "ovarian cancer (4 cell lines)", "assay": "CellTiter-Glo Viability Assay, ovarian cancer", "format": "cell-based", "conditions": "Homo sapiens"}, "[15]": {"tested_on": "pancreatic cancer (8 cell lines)", "assay": "CellTiter-Glo Viability Assay, pancreatic cancer", "format": "cell-based", "conditions": "Homo sapiens"}, "[16]": {"tested_on": "prostate cancer (5 cell lines)", "assay": "CellTiter-Glo Viability Assay, prostate cancer", "format": "cell-based", "conditions": "Homo sapiens"}, "[17]": {"molecular_target": "CLK3 (Homo sapiens, UniProt P49761)", "sequence (P49761 whole entry)": "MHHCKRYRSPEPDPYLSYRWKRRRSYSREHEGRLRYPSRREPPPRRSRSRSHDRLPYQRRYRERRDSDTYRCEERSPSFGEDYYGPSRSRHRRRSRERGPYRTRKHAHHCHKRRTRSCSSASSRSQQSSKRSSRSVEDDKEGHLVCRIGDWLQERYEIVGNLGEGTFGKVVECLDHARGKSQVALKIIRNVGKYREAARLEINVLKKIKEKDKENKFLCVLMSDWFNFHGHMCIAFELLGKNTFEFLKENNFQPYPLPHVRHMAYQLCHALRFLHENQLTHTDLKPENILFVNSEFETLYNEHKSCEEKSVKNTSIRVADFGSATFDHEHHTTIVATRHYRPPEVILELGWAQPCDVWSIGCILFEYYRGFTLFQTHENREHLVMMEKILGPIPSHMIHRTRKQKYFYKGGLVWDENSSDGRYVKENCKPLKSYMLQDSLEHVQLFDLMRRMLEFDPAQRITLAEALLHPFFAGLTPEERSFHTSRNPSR", "assay": "CLK3 kinase activity assay (Z-lyte, Ser/Thr 18 peptide)"}},
  "note": "Where two headings read alike, the source gives them in different places.",
  "data": [
    {"smiles": "CN1CCN(C(=O)C(C)(C)c2ccc(C(=O)Nc3cn4cc(-c5ccncc5)ccc4n3)cc2)CC1", "note": "[Compound 27]", "values": [
      {"measurement": "EC50", "setting": "[1]", "value": 3610, "unit": "nM"},
      {"measurement": "EC50", "setting": "[2]", "value": 4250, "unit": "nM"},
      {"measurement": "EC50", "setting": "[3]", "value": 1990, "unit": "nM"},
      {"measurement": "EC50", "setting": "[4]", "value": 8040, "unit": "nM"},
      {"measurement": "EC50", "setting": "[5]", "value": 3970, "unit": "nM"},
      {"measurement": "EC50", "setting": "[6]", "value": 3650, "unit": "nM"},
      {"measurement": "EC50", "setting": "[7]", "value": 4100, "unit": "nM"},
      {"measurement": "EC50", "setting": "[8]", "value": 3910, "unit": "nM"},
      {"measurement": "EC50", "setting": "[9]", "value": 2840, "unit": "nM"},
      {"measurement": "EC50", "setting": "[10]; DLD-1, read-out: Colorectal cancer, EC50 (μM) DLD-1", "value": 1.65, "unit": "µM"},
      {"measurement": "EC50", "setting": "[10]; HCT-116, read-out: Colorectal cancer, EC50 (μM) HCT116", "value": 1.08, "unit": "µM"},
      {"measurement": "EC50", "setting": "[10]; HT-29, read-out: Colorectal cancer, EC50 (μM) HT29", "value": 2.38, "unit": "µM"},
      {"measurement": "EC50", "setting": "[10]; SW48, read-out: Colorectal cancer, EC50 (μM) SW48", "value": 0.675, "unit": "µM"},
      {"measurement": "EC50", "setting": "[10]; SW480, read-out: Colorectal cancer, EC50 (μM) SW480", "value": 1.08, "unit": "µM"},
      {"measurement": "EC50", "setting": "[10]; SW-620, read-out: Colorectal cancer, EC50 (μM) SW620", "value": 0.97, "unit": "µM"},
      {"measurement": "EC50", "setting": "[11]; DND41, read-out: Haematopoietic & Lymphoid tumors, EC50 (μM) DND-41", "value": 1.78, "unit": "µM"},
      {"measurement": "EC50", "setting": "[11]; HL-60, read-out: Haematopoietic & Lymphoid tumors, EC50 (μM) HL-60", "value": 4.98, "unit": "µM"},
      {"measurement": "EC50", "setting": "[11]; JM1, read-out: Haematopoietic & Lymphoid tumors, EC50 (μM) JM1", "value": 0.982, "unit": "µM"},
      {"measurement": "EC50", "setting": "[11]; JeKo-1, read-out: Haematopoietic & Lymphoid tumors, EC50 (μM) JeKo-1", "value": 1.22, "unit": "µM"},
      {"measurement": "EC50", "setting": "[11]; Jurkat, read-out: Haematopoietic & Lymphoid tumors, EC50 (μM) JURKAT, Clone E6-1", "value": 3.85, "unit": "µM"},
      {"measurement": "EC50", "setting": "[11]; Kasumi 1, read-out: Haematopoietic & Lymphoid tumors, EC50 (μM) KASUMI-1", "value": 2.1, "unit": "µM"},
      {"measurement": "EC50", "setting": "[11]; MOLT-4, read-out: Haematopoietic & Lymphoid tumors, EC50 (μM) MOLT-4", "value": 2.39, "unit": "µM"},
      {"measurement": "EC50", "setting": "[11]; MV4-11, read-out: Haematopoietic & Lymphoid tumors, EC50 (μM) MV-4-11", "value": 0.275, "unit": "µM"},
      {"measurement": "EC50", "setting": "[11]; Rec1, read-out: Haematopoietic & Lymphoid tumors, EC50 (μM) REC-1", "value": 1, "unit": "µM"},
      {"measurement": "EC50", "setting": "[11]; SU-DHL-4, read-out: Haematopoietic & Lymphoid tumors, EC50 (μM) SUDHL4", "value": 2.54, "unit": "µM"},
      {"measurement": "EC50", "setting": "[11]; TF-1, read-out: Haematopoietic & Lymphoid tumors, EC50 (μM) TF-1", "value": 3.41, "unit": "µM"},
      {"measurement": "EC50", "setting": "[11]; Toledo, read-out: Haematopoietic & Lymphoid tumors, EC50 (μM) TOLEDO", "value": 1.1, "unit": "µM"},
      {"measurement": "EC50", "setting": "[11]; read-out: Haematopoietic & Lymphoid tumors, EC50 (μM) Loucy", "value": 1.49, "unit": "µM"},
      {"measurement": "EC50", "setting": "[12]; HepG2, read-out: Liver cancer, EC50 HEPG2", "value": 3340, "unit": "nM"},
      {"measurement": "EC50", "setting": "[12]; PLC-PRF-5, read-out: Liver cancer, EC50 PLC/PRF/5", "value": 4020, "unit": "nM"},
      {"measurement": "EC50", "setting": "[12]; SNU-398, read-out: Liver cancer, EC50 SNU398", "value": 917, "unit": "nM"},
      {"measurement": "EC50", "setting": "[13]; A-427, read-out: Lung cancer, EC50 (μM) A427", "value": 3.08, "unit": "µM"},
      {"measurement": "EC50", "setting": "[13]; HCC78, read-out: Lung cancer, EC50 (μM) HCC-78", "value": 3.72, "unit": "µM"},
      {"measurement": "EC50", "setting": "[13]; NCI-H460, read-out: Lung cancer, EC50 (μM) NCI-H460", "value": 3.54, "unit": "µM"},
      {"measurement": "EC50", "setting": "[13]; NCI-H522, read-out: Lung cancer, EC50 (μM) NCI-H522", "value": 1.99, "unit": "µM"},
      {"measurement": "EC50", "setting": "[14]; OV-90, read-out: Ovarian cancer, EC50 (μM) OV-90", "value": 3.87, "unit": "µM"},
      {"measurement": "EC50", "setting": "[14]; OVCAR-3, read-out: Ovarian cancer, EC50 (μM) OVCAR-3", "value": 1.31, "unit": "µM"},
      {"measurement": "EC50", "setting": "[14]; PA-1, read-out: Ovarian cancer, EC50 (μM) PA1", "value": 1.58, "unit": "µM"},
      {"measurement": "EC50", "setting": "[14]; TOV112D, read-out: Ovarian cancer, EC50 (μM) TOV-112D", "value": 2.32, "unit": "µM"},
      {"measurement": "EC50", "setting": "[15]; BXPC-3, read-out: Pancreatic cancer, EC50 BxPC3", "value": 4610, "unit": "nM"},
      {"measurement": "EC50", "setting": "[15]; CAPAN-1, read-out: Pancreatic cancer, EC50 Capan1", "value": 3470, "unit": "nM"},
      {"measurement": "EC50", "setting": "[15]; Capan-2, read-out: Pancreatic cancer, EC50 Capan2", "value": 3770, "unit": "nM"},
      {"measurement": "EC50", "setting": "[15]; MIA PaCa-2, read-out: Pancreatic cancer, EC50 MIA PaCa-2", "value": 1440, "unit": "nM"},
      {"measurement": "EC50", "setting": "[15]; PANC-1, read-out: Pancreatic cancer, EC50 PANC-1", "value": 4640, "unit": "nM"},
      {"measurement": "EC50", "setting": "[15]; Panc 05.04, read-out: Pancreatic cancer, EC50 PANC 05.04", "value": 3640, "unit": "nM"},
      {"measurement": "EC50", "setting": "[15]; read-out: Pancreatic cancer, EC50 UPAFII", "value": 1870, "unit": "nM"},
      {"measurement": "EC50", "setting": "[16]; 22Rv1, read-out: Prostate cancer EC50 22Rv1", "value": 2910, "unit": "nM"},
      {"measurement": "EC50", "setting": "[16]; DU-145, read-out: Prostate cancer EC50 Du-145", "value": 3380, "unit": "nM"},
      {"measurement": "EC50", "setting": "[16]; LNCaP-Clone-FGC, read-out: Prostate cancer EC50 LNCap clone FGC", "value": 4180, "unit": "nM"},
      {"measurement": "EC50", "setting": "[16]; PC-3, read-out: Prostate cancer EC50 PC3", "value": 2580, "unit": "nM"},
      {"measurement": "EC50", "setting": "[16]; VCaP, read-out: Prostate cancer EC50 VCaP (Sigma)", "value": 7470, "unit": "nM"},
      {"measurement": "EC50", "setting": "[17]", "value": 35, "unit": "nM"}
    ]}
  ]
}
